From US20240285553A1, “METHODS TO MODULATE MITOPHAGY WITH SREBP SIGNALING PATHWAY ACTIVATORS” (THE TRUSTEES OF INDIANA UNIVERSITY, priority 2021, published 2024)
“Also recorded” adds a separate entry of the source.

Legend:
SREBP1 [1] = experiment: Western blot of SREBP1, SCD and NCEH1 (SREBP1 activation); format: cell-based, human; details: for SCD (SREBP1 target) levels / SREBP1 levels (non-cleaved; decrease indicates cleavage and activation): ECs / PAEC; for SCD (SREBP1 target) levels / SREBP1 levels (non-cleaved; decrease indicates cleavage and activation) / NCEH1 levels: western blot
From the text: Western blot. Cell lysates were resolved on a SDS PAGE pre-cast gel (Invitrogen) and resolved proteins were transferred on to a PVDF membrane for further detection of proteins using specific antibodies. Antibodies for SREBP1 were purchased from Santa Cruz Biotechnology (Cat #sc-365513) and Novus biological (Cat #NB100-2215). SCD antibody was purchased from Santa Cruz Biotechnology (Cat #sc-58420). Tom20 and LAMP1 antibodies were purchased from Cell Signaling (Cat #42406S and 15665S, respectively). […]

SREBP1 [2] = experiment: Immunofluorescence of SREBP1 nuclear accumulation; format: cell-based, human; details: ECs, IF
From the text: (§1) Immunofluorescence Microscopy. Cells were fixed with 4% Formaldehyde (Electron Microscopy Sciences, #C993M24) and permeabilized in the presence of 0.1% Triton X-100 (Sigma). Full-length SREBP1 was stained using mouse monoclonal antibody from Santa Cruz Biotechnology (Cat #sc-365513). Whereas nuclear SREBP1 was detected using antibody from Novus biological (Cat #NB100-2215). Mitophagy was confirmed by staining mitochondrial Tom20 and lysosomal marker LAMP1. Tom20 and LAMP1 antibodies were purchased from Cell Signaling (Cat #42406S and 15665S, respectively). Images were captured on an inverted fluorescent microscope (Leica).
NCEH1 knockdown experiments. NCEH1 was depleted using siRNA pool from Dharmacon or Lentiviral shRNA from Sigma. NCEH1 depletion was confirmed on a Western blot or by immunofluorescence assay.
Although pharmacological inhibition of NCEH1 promoted nuclear accumulation of SREBP1, genetic evidence further supports these observations. To this end, ECs were transfected with control or siNCEH1 siRNA and localization of SREBP1 or NCEH1 was captured on IF microscope.

[3] = tested on: pulmonary arterial endothelial cells (PAECs); experiment: Western blot of mitochondrial marker TOM20 as measure of mitophagy; format: cell-based, human; details: for Tom20 levels (mitophagy): ECs / PAEC
From the text: Western blot. Cell lysates were resolved on a SDS PAGE pre-cast gel (Invitrogen) and resolved proteins were transferred on to a PVDF membrane for further detection of proteins using specific antibodies. Antibodies for SREBP1 were purchased from Santa Cruz Biotechnology (Cat #sc-365513) and Novus biological (Cat #NB100-2215). SCD antibody was purchased from Santa Cruz Biotechnology (Cat #sc-58420). Tom20 and LAMP1 antibodies were purchased from Cell Signaling (Cat #42406S and 15665S, respectively).
(§2) First, degradation of a mitochondrial marker (TOM20) was evaluated as a bio-chemical marker of mitophagy induction.

PAEC / ECs = experiment: Immunofluorescence microscopy of Tom20 and lysosomal marker LAMP1 (mitophagy); format: cell-based, human; details: for mitophagy by immunofluorescence (Tom20/Lamp1): ECs
From the text: as §1, with “Mitophagy was confirmed by staining mitochondrial Tom20 and lysosomal marker LAMP1.” left out
as §2
Fixed cells were stained with Tom20 and Lamp1 and the fluorescence images were captured on a fluorescence microscope.

[4] = target: T1, NCEH1-phosphatidylserine interactions (Homo sapiens, UniProt Q6PIU2); experiment: Dot blot membrane strip assay of NCEH1 binding to phosphatidylserine; details: purified NCEH1 protein on lipid membrane strip, in vitro
T1 sequence (Q6PIU2 1-408): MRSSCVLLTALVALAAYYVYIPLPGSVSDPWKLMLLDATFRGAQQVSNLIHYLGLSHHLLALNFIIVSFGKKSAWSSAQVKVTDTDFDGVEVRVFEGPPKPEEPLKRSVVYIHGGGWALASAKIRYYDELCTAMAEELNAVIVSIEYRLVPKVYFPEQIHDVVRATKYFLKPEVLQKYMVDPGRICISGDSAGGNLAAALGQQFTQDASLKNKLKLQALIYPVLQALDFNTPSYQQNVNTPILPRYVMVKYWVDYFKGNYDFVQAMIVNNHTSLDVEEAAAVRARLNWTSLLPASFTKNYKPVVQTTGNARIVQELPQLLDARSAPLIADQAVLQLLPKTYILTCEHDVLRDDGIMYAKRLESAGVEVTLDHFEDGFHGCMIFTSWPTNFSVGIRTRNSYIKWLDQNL
Description: Membranes having the specified compounds were incubated with purified NCEH1 protein and the membrane was developed with NCEH1 antibody. […] ECs were treated with papuamide and cell extracts were blotted with indicated antibodies.

ECs = experiment: Transmission electron microscopy for mitophagy; format: cell-based, human; details: 10 uM propranolol, 10 uM R-propranolol or 0.1 uM JW480 for 12 hours
Description: Transmission Electron Microscopy. […] Thin sections from these fixed cell blocks were visualized on Tecnai Spirit (ThermoFisher) TEM Microscope. Images captured were analyzed.
TEM evidence. […] ECs exposed to these drugs were fixed and the images were captured on a TEM.

SREBP1 pathway = experiment: RNA sequencing and pathway analysis of propranolol-treated ECs; format: cell-based, human; details: ECs treated with propranolol
From the text: SREBP1 is a key transcription factor that promotes lipid synthesis upon activation. Normally, SREBP1 protein is retained in the endoplasmic reticulum by high levels of cholesterol. When the cholesterol levels drop, SREBP1 protein gets translocated to the Golgi where it is cleaved, and the transcriptional activation portion of this protein gets translocated to the nucleus. Subsequently, SREBP1 activates a transcription program of genes involved in lipid synthesis. RNAseq data was generated to study mechanisms of propranolol-mediated PAEC mitophagy induction. […] ECs were treated with propranolol and the total RNA isolated from the cells were subjected to high through-put RNA sequencing.

MCT-induced PAH in rats = experiment: Rat MCT (monocrotaline) model of PAH; format: in vivo
Description: Rat MCT model of PAH. SD rats were given one dose of MCT injection to induce pulmonary hypertension. […] Rats were anesthetized and RVSP recorded.
Rats were injected with MCT to develop PAH in a well-established 4 week rodent model of the disease.

SREBP1-NCEH1 complex = target: T2, SREBP1-NCEH1 complex (Homo sapiens, UniProt Q6PIU2); experiment: Immunoprecipitation of endogenous SREBP1-NCEH1 complex; format: cell-based; details: ECs, vs vehicle
T2 construct: endogenous in cells; host or cells: cultured endothelial cells (ECs)
T2 sequence (Q6PIU2 1-408): T1 sequence (Q6PIU2 1-408)
Description: Immunoprecipitation Assay. In determining endogenous SREBP1-NCEH1 complex formation, cultured endothelial cells were treated with IP lysis buffer (Pierce Cat #87787). SREBP1 complex was captured using SREBP1 antibody from Santa Cruz Biotechnology (Cat #sc-365513) and resolved on a SDS PAGE. Complex formation with NCEH1 was detected by blotting with NCEH1 antibodies (Sigma Cat #HPA026888). To map the domain of SREBP1 that binds to NCEH1, HA tagged full-length SREBP1 or C-terminal regulatory domain alone were co-expressed along with Flag tagged NCEH1 in HEK293 cells. SREBP proteins were captured on HA antibodies (Cell Signaling) and blotted with Flag antibodies (Sigma).

HF-PH mice = experiment: High-fat diet AKR/J HF-PH mouse model; format: in vivo; details: 4 weeks, implanted mini osmotic pump, vs vehicle
From the text: FIG. 14: Using a mouse model fed a high-fat diet, AKR/J mice develop obesity, insulin resistance, heart failure with preserved ejection fraction, and pulmonary hypertension and are designated as “HF-PH mice”.
Using a mouse model fed a high-fat diet (Research Diets, New Brunswick, NJ) for 16-20 weeks, AKR/J mice (Jackson Laboratories, Bar Harbor, ME) develop obesity, insulin resistance, heart failure with preserved ejection fraction, and pulmonary hypertension. (Meng, et al., 2017; Arwood, et al., 2019).

[5] = tested on: laser-induced CNV in mice; experiment: Laser-induced choroidal neovascularization (CNV) mouse model; format: in vivo; details: 20 mg/kg for seven days
Description: The eye offers an opportune model to study vascular pathology. The laser-induced choroidal neovascularization (CNV)) mouse model is used to study pathologic exudative angiogenesis as a major contributor to age-related macular degeneration (AMD). To test the protective effects of NCEH1 blockade, CNV was induced in two groups of mice that are exposed to either vehicle or 20 mg/kg of JW480 for seven days (n=12 each). […] Cumulatively, these mice studies provide evidence for the therapeutic use of JW480 in pathological CV conditions.

[6] = tested on: myocardial infarction in mice; experiment: Myocardial infarction (MI) mouse model, ligation of the left coronary artery; format: in vivo
Description: Ligation of the left coronary artery is a well-accepted mouse model of myocardial infarction (MI), associated with high mortality (>70% in lwk). […] Mice were treated with vehicle or 20 mg/kg JW480 (IP, n=6 males & 6 females) for five days and subjected to an MI.

[7] = donor (non-PAH control)-derived PAEC / normal control ECs

For papuamide, the “activation of non-canonical SREBP1 pathway” value (SREBP1 [1]; ECs, cell extracts blotted) was “activate a non-canonical SREBP1 pathway” and the “nuclear translocation of SREBP1” value (SREBP1 [2]) was “promotes nuclear translocation of SREBP1”.

With `OC(CNCC(O)C1CCc2cc(F)ccc2O1)C1CCc2cc(F)ccc2O1` (stereo not drawn) [nebivolol] the “Tom20 levels (mitophagy)” value [3] was “failed to promote mitophagy”.

`COCCc1ccc(OCC(O)CNC(C)C)cc1` (stereo not drawn) [metoprolol] was tested, and the “Tom20 levels (mitophagy)” value [3] was “failed to promote mitophagy”.

For `CCN(CC)CCO[C@H]1CC[C@@]2(C)C(=CC[C@@H]3[C@@H]2CC[C@]2(C)C(=O)CC[C@@H]32)C1.Cl` [U18666A], the “mitophagy by immunofluorescence (Tom20/Lamp1)” value (shortened to “mitophagy … (Tom20/Lamp1)”) (PAEC / ECs) was “induce mitophagy”.

In the case of `N#CC(C#N)=NNc1cccc(Cl)c1` [CCCP, carbonyl cyanide m-chlorophenylhydrazone], the “mitophagy induction (TOM20 level)” value ([3]; PAH patient-derived PAEC) is reported as “not observed; also recorded: failed to promote mitophagy” and the “mitophagy induction (TOM20 level)” value [3, 7] is reported as “induced mitophagy; also recorded: promotes mitophagy”.

`CC(C)NCC(O)COc1cccc2ccccc12` (racemic) [propranolol] was tested, and the NCEH1-phosphatidylserine interaction [4] was “disrupts NCEH1-phosphatidylserine interactions”, the “mitophagy by TEM (bilipid membrane formation around mitochondria)” value (ECs) was “promotes bilipid membrane formation around mitochondria more frequently than vehicle treated cells; also recorded: promoted mitophagy” and the “mitophagy … (Tom20/Lamp1)” value (PAEC / ECs) was “induce mitophagy; also recorded: Tom20 was mobilized to lysosome”. The TOM20/Lamp1 co-staining (PAEC / ECs; propranolol treated PAH patient-derived PAEC) was “reduced TOM20/Lamp1 co-staining”, the “SREBP1 transcriptional targets and transcript levels (RNA-seq)” value (SREBP1 pathway) was “activated transcriptional targets, as well as transcript levels of SREBP1” and the “Tom20 levels (mitophagy)” value [3] was “decreased Tom20 levels; also recorded: robustly induced mitophagy; also recorded: TOM20 levels go down; also recorded: lower”. The “mitophagy induction (TOM20 level)” value ([3]; PAH patient-derived PAEC) was “reduced TOM20 levels; also recorded: consistently decreased Tom20 levels in PAH patient cells much more robustly than in normal cells”, the “mitophagy induction (TOM20 level)” value [3, 7] was “reduced TOM20 across all cells” and the “SCD (SREBP1 target) levels” value (SREBP1 [1]) was “increased; also recorded: elevated”. For the same molecule, the “SREBP1 levels (non-cleaved; decrease indicates cleavage and activation)” value (SREBP1 [1]) was “SREBP1 levels go down; also recorded: reduce SREBP1 levels”, the NCEH1 levels (SREBP1 [1]; ECs) was “higher” and the “effect on inhibitor effects of fatostatin” value (SREBP1 [1]; PAEC, propranolol with fatostatin, last lane of western blot) was “able to rescue inhibitor effects of fatostatin”. The “right ventricle systolic pressures (RVSP)” value (MCT-induced PAH in rats; 10 mg/kg IP for the last 2 of 4 weeks) was “significantly reduced”, the “MCT-induced arterial wall thickness” value (MCT-induced PAH in rats; 10 mg/kg IP, lung sections H&E) was “negated MCT-induced arterial wall thickness” and the “nuclear translocation of SREBP1” value (SREBP1 [2]) was “promoted nuclear translocation of SREBP1”. The “full length SREBP1 immunoprecipitated” value (SREBP1-NCEH1 complex; anti-SREBP1 antibody beads) was “less full length SREBP1 immunoprecipitated”, the “NCEH1 complexed with full length SREBP1” value (SREBP1-NCEH1 complex; blotted with NCEH1 antibody) was “reduced NCEH1 complexed with full length SREBP1” and the “right ventricular systolic pressure” value (HF-PH mice) was “significantly decreased”.

In the case of `CC(C)c1ccccc1OC(=O)NCCc1ccc2ccccc2c1` [JW480], the NCEH1-phosphatidylserine interaction [4] is reported as “disrupts NCEH1-phosphatidylserine interactions”, the “mitophagy by TEM (bilipid membrane formation around mitochondria)” value (ECs) is reported as “promoted mitophagy” and the “mitophagy … (Tom20/Lamp1)” value (PAEC / ECs) is reported as “Tom20 was mobilized to lysosome”. The “pathologic CNV” value [5] was “inhibited pathologic CNV”, the retinal vessel leakage [5] was “significantly reduced retinal vessel leakage” and the “Tom20 levels (mitophagy)” value [3] was “lower”. The “Tom20 levels (mitophagy)” value ([3]; listed as NCEH1) was “reduced the levels of Tom20”, the “SCD (SREBP1 target) levels” value (SREBP1 [1]) was “elevated” and the “SREBP1 levels (non-cleaved; decrease indicates cleavage and activation)” value (SREBP1 [1]) was “reduce SREBP1 levels”. The “SCD (SREBP1 target) levels” value (SREBP1 [1]; listed as NCEH1) was “sufficient to activate SREBP1 target SCD”, the NCEH1 levels (SREBP1 [1]; ECs) was “higher” and the “nuclear translocation of SREBP1” value (SREBP1 [2]) was “promoted nuclear translocation of SREBP1”. For the same molecule, the “intracellular lipid droplets (TEM)” value ([6]; JW480-treated mice) was “increased intracellular lipid droplets” and the “survival after MI” value ([6]; mice, 20 mg/kg IP for five days before MI) was “significantly improved survival”.
